# Results taken from article PMC7170309, “Imidazopyridine-fused [1,3]diazepinones: modulations of positions 2 to 4 and their impacts on the anti-melanoma activity” (Journal of Enzyme Inhibition and Medicinal Chemistry, 2020).
# Experiments:
# [1] = test system: SK-MEL-28; assay: NCI-60 SRB assay, SK-MEL-28 (Melanoma); assay type: cell-based, human; settings: 10 µM, 48 h; for G%: growth vs untreated control
# Protocol: (§1) Primary anticancer assay was performed on a panel of 60 human cancer cell lines derived from nine neoplastic diseases, in accordance with the protocol of the Drug Evaluation Branch, National Cancer Institute, Bethesda, Maryland, USA[22]. Cells were incubated with tested compounds at 10 µM for 48 h. The growth percentage was evaluated spectrophotometrically using a protein binding dye, SRB. Results for each tested compound were reported as the percent of growth of treated cells when compared to untreated control cells.
# (§2) To better compare the activity profile of these two series of compounds, compounds 5 and 8 were selected and then evaluated towards a panel of sixty cancer cell lines corresponding to nine different cancer types, i.e. leukaemia, melanoma, as well as lung, colon, central nervous system, ovarian, renal, prostate and breast cancers (NCI evaluation). Indeed, it is now well established that the growth inhibitory patterns of anticancer drugs against the NCI-60 cell line panel correlated well with their modes of action. For example, compounds that bind to tubulin have similar growth inhibition patterns regardless of which site on tubulin they bind[30]. […] Compounds were tested using the sulforhodamine B (SRB) assay that provides a direct cell density index. The amount of dye incorporated by the cells increases with the increase of the total protein biomass. Cells were incubated for 48 h with compounds at 10 µM concentration, then cell growth was evaluated spectrophotometrically and presented as the percent of untreated control cells. Values of the most sensitive cell lines were compared to those obtained with JMV5038 (Figure 4, for all data see SI).
# [2] = test system: A375 melanoma cells; assay: Neutral red uptake (NRU) viability assay, A375; assay type: cell-based, human; settings: Homo sapiens, A-375, 72 h, mean ± SD of three experiments
# Protocol: (§3) Melanoma human cancer cell line (A375 and MDA-MB-435) were obtained from ATCC. The NIH-3T3 cell line was generously gifted by the ANSM (French National Agency for Medicines and Health Products Safety, Vendargues, France). Cells were cultured in Dulbecco’s Modified Eagle Medium (DMEM, Sigma Aldrich) supplemented with 10% heat-inactivated foetal calf serum (FCS, Gibco), 2 mM glutamax (Gibco), 100 IU/mL penicillin G sodium (Sigma Aldrich), 100 lU/mL streptomycin sulphate (Sigma Aldrich). The cells were allowed to grow at 37 °C in a fully humidified atmosphere containing 5% CO2.
# (§4) A viability assay was used to evaluate the cytotoxic activity on A375 and MDA-MB-435 melanoma cells as previously described. According to OCDE/ICCVAM guidance n°129, NRU assay was also used to evaluate the toxicity on the non-cancerous NIH-3T3 cells. Cells were seeded at a final concentration of 2000 cells/well (A375), 3000 cells/well (NIH-3T3) or 7500 cells/well (MDA-MB-435) in 96-well microtiter plates for 24 h. Then, cells were exposed to two negative controls (1% DMSO in culture medium (vehicle) and culture medium alone), or to different compounds freshly dissolved in DMSO, in a range of concentration from 0.01 to 40 µM (six wells per concentration). After 72 h of incubation, cells were stained with new medium containing 50 µg/mL of neutral red (3-amino-7-dimethylamino-2-methylphenazine hydrochloride, Sigma Aldrich) at 37 °C for 2 h. The neutral red medium solution was then removed and the wells were washed with PBS. Finally, 100 µL of solution containing ethanol, acetic acid and water (50/1/49 v/v/v respectively) were added into the wells and the absorbance was measured at 540 nm using the microplate reader 352 Multiscan MS (Labsystems). Cell survival rates were normalised to the absorbance values of untreated control cells. IC50 was obtained using a logistic regression model on Graphpad Prism 5.0 software. Results are given as the mean ± standard deviation (SD) of three independent experiments. Statistical analysis was performed using the Student’s t-test.
# [3] = test system: MDA-MB-435 melanoma cells; assay: Neutral red uptake (NRU) viability assay, MDA-MB-435; assay type: cell-based, human; settings: Homo sapiens, MDA-MB-435; NRU assay, 72 h, mean ± SD of three experiments
# Protocol: as §3, §4
# [4] = test system: A498; assay: NCI-60 SRB assay, A498 (Renal Cancer); assay type: cell-based, human; settings: 10 µM, 48 h; for G%: growth vs untreated control
# Protocol: as §1, §2
# [5] = test system: HCT-15; assay: NCI-60 SRB assay, HCT-15 (Colon Cancer); assay type: cell-based, human; settings: 10 µM, 48 h; for G%: growth vs untreated control
# Protocol: as §1, §2
# [6] = test system: T-47D; assay: NCI-60 SRB assay, T-47D (Breast Cancer); assay type: cell-based, human; settings: 10 µM, 48 h; for G%: growth vs untreated control
# Protocol: as §1, §2
# [7] = test system: RXF 393; assay: NCI-60 SRB assay, RXF 393 (Renal Cancer); assay type: cell-based, human; settings: 10 µM, 48 h; for G%: growth vs untreated control
# Protocol: as §1, §2
# [8] = test system: NIH-3T3 non-cancerous cells; assay: Neutral red uptake (NRU) toxicity assay, NIH-3T3; assay type: cell-based; settings: non-cancerous mouse fibroblasts
# Protocol: as §3, §4
# Then, all active compounds on the two melanoma cell lines (IC50 < 40 µM) were assessed on the NIH-3T3 mouse fibroblast cell line, in order to check the toxicity of our compounds on non-cancerous cells. […] As a possible modification of the mechanism of action was hypothesised for these two derivatives (see above), this phenomenon could probably be also correlated with the cytotoxicity observed on the NIH-3T3 cell line.
# [9] = test system: HCT-116; assay: NCI-60 SRB assay, HCT-116 (Colon Cancer); assay type: cell-based, human; settings: 10 µM, 48 h; for G%: growth vs untreated control
# Protocol: as §1, §2
# [10] = test system: BT-549; assay: NCI-60 SRB assay, BT-549 (Breast Cancer); assay type: cell-based, human; settings: 10 µM, 48 h; for G%: growth vs untreated control
# Protocol: as §1, §2
# [11] = test system: SF-295; assay: NCI-60 SRB assay, SF-295 (CNS Cancer); assay type: cell-based, human; settings: 10 µM, 48 h; for G%: growth vs untreated control
# Protocol: as §1, §2
# [12] = test system: HS 578T; assay: NCI-60 SRB assay, HS 578T (Breast Cancer); assay type: cell-based, human; settings: 10 µM, 48 h; for G%: growth vs untreated control
# Protocol: as §1, §2
# [13] = test system: NCI-H226; assay: NCI-60 SRB assay, NCI-H226 (NSCLC); assay type: cell-based, human; settings: 10 µM, 48 h; for G%: growth vs untreated control
# Protocol: as §1, §2
# [14] = test system: NCI-H322M; assay: NCI-60 SRB assay, NCI-H322M (NSCLC); assay type: cell-based, human; settings: 10 µM, 48 h; for G%: growth vs untreated control
# Protocol: as §1, §2
# [15] = test system: UACC-62; assay: NCI-60 SRB assay, UACC-62 (Melanoma); assay type: cell-based, human; settings: 10 µM, 48 h; for G%: growth vs untreated control
# Protocol: as §1, §2
# [16] = test system: SN12C; assay: NCI-60 SRB assay, SN12C (Renal Cancer); assay type: cell-based, human; settings: 10 µM, 48 h; for G%: growth vs untreated control
# Protocol: as §1, §2
# [17] = test system: NCI-60 cancer cell line panel; assay: NCI-60 SRB assay, whole panel; assay type: cell-based, human; settings: 10 µM, 48 h
# Protocol: as §1, §2
# [18] = test system: SK-OV-3; assay: NCI-60 SRB assay, SK-OV-3 (Ovarian Cancer); assay type: cell-based, human; settings: 10 µM, 48 h; for G%: growth vs untreated control
# Protocol: as §1, §2
# [19] = test system: SNB-19; assay: NCI-60 SRB assay, SNB-19 (CNS Cancer); assay type: cell-based, human; settings: 10 µM, 48 h; for G%: growth vs untreated control
# Protocol: as §1, §2
# [20] = test system: CCRF-CEM; assay: NCI-60 SRB assay, CCRF-CEM (Leukemia); assay type: cell-based, human; settings: 10 µM, 48 h; for G%: growth vs untreated control
# Protocol: as §1, §2
# [21] = test system: MOLT-4; assay: NCI-60 SRB assay, MOLT-4 (Leukemia); assay type: cell-based, human; settings: 10 µM, 48 h; for G%: growth vs untreated control
# Protocol: as §1, §2
Compound,Mean G% - G% [1],G% [1],IC50 [2] [µM],IC50 [3] [µM],Mean G% - G% [4],G% [4],Mean G% - G% [5],G% [5],Mean G% - G% [6],G% [6],"IC50 ([8]; Mus musculus, NIH3T3, 72 h) [µM]",Mean G% - G% [9],G% [9],Mean G% - G% [10],G% [10],Mean G% - G% [11],G% [11],Mean G% - G% [12],G% [12],Mean G% - G% [13],other results
"C[C@@H]1NC(c2ccc(N=[N+]=[N-])cc2)=Nc2nc3ccccn3c2C1=O [Compound 5, (4S)-4-methyl-2-(4-azidophenyl)-3,4-dihydro-5H-pyrido[1’,2’:1,2]imidazo[4,5-d][1,3]diazepin-5-one]","-9,13%","94,39%",7.13 ± 0.51,4.75 ± 0.21,"-14,16%","99,42%","16,87%","68,39%","8,29%","76,97%",> 40,"-2,45%","87,71%","-10,11%","95,37%","-8,18%","93,44%","-10,95%","96,21%","-3,88%","Mean G% - G% [7]: -1,17%; G% [7]: 86,43%; G% [13]: 89,14%; Mean G% - G% [14]: -10,63%; G% [14]: 95,89%; Mean G% - G% [15]: 17,97%; G% [15]: 67,29%; Mean G% - G% [16]: -18,28%; G% [16]: 103,54%; melting point: 235 to 236 °C (dec.); Mean G% (mean growth over the panel) [17]: 85,26%; Mean G% - G% [18]: -1,19%; G% [18]: 86,45%; Mean G% - G% [19]: -4,44%; G% [19]: 89,70%; Mean G% - G% [20]: -12,13%; G% [20]: 97,39%"
"C[C@@H]1NC(c2csc3ccccc23)=Nc2nc3ccccn3c2C1=O [Compound 8, (4S)-4-methyl-2-benzothiophen-3-yl-3,4-dihydro-5H-pyrido[1’,2’:1,2]imidazo[4,5-d][1,3]diazepin-5-one]","-23,33%","98,20%",7.97 ± 0.65,10.12 ± 0.08,"13,54%","61,33%","-1,17%","76,04%","28,96%","45,91%",> 40,"2,74%","72,13%","-11,85%","86,72%","-8,66%","83,53%","15,40%","59,47%","2,63%","Mean G% - G% [21]: -8,59%; G% [21]: 83,46%; G% [13]: 72,24%; Mean G% - G% [14]: 10,06%; G% [14]: 64,81%; Mean G% - G% [15]: -12,07%; G% [15]: 86,94%; Mean G% - G% [16]: -9,24%; G% [16]: 84,11%; melting point: 135 to 137 °C; Mean G% (mean growth over the panel) [17]: 74.87%; Mean G% - G% [18]: 7,58%; G% [18]: 67,29%; Mean G% - G% [19]: -4,95%; G% [19]: 79,82%"
"[N-]=[N+]=NCCCC[C@@H]1NC(c2ccc(Br)cc2)=Nc2nc3ccccn3c2C1=O [Compound 16, (4S)-4-(4-azidobutyl)-2-(4-bromophenyl)-3,4-dihydro-5H-pyrido[1’,2’:1,2]imidazo[4,5-d][1,3]diazepin-5-one]","-18,13%","109,90%",3.68 ± 0.63,4.12 ± 0.22,"8,90%","82,87%","-6,56%","98,33%","10,17%","81,60%",~10,"-1,04%","92,81%","-13,82%","105,59%","-4,02%","95,79%","-1,51%","93,28%","3,58%","Mean G% - G% [21]: 4,57%; G% [21]: 87,20%; Mean G% - G% [7]: 10,83%; G% [7]: 80,94%; IC50 ([8]; 72 h): 9.9 ± 0.51 µM; G% [13]: 88,19%; Mean G% - G% [14]: 0,41%; G% [14]: 91,36%; Mean G% - G% [15]: 11,94%; G% [15]: 79,83%; Mean G% - G% [16]: -4,64%; G% [16]: 96,41%; melting point: 127 to 128 °C; Mean G% (mean growth over the panel) [17]: 91.77%; Mean G% - G% [18]: 5,78%; G% [18]: 85,99%; Mean G% - G% [19]: -3,35%; G% [19]: 95,12%; Mean G% - G% [20]: -6,17%; G% [20]: 97,94%"
C[C@@H]1NC(c2ccc(Br)cc2)=Nc2nc3ccccn3c2C1=O [JMV5038],"-11,91%","66,15%",2.1 ± 0.42,1.3 ± 0.53,"-15,64%","69,88%","23,49%","30,75%","-12,99%","67,23%",> 100,"25,02%","29,22%","4,92%","49,32%","13,36%","40,88%","-17,10%","71,34%","-14,04%","Mean G% - G% [21]: -3,27%; G% [21]: 57,51%; Mean G% - G% [7]: -13,94%; G% [7]: 68,18%; G% [13]: 68,28%; Mean G% - G% [14]: -19,71%; G% [14]: 73,95%; Mean G% - G% [15]: 5,01%; G% [15]: 49,23%; Mean G% - G% [16]: -37,53%; G% [16]: 91,77%; Mean G% (mean growth over the panel) [17]: 54,24%; Mean G% - G% [18]: -17,78%; G% [18]: 72,02%; Mean G% - G% [19]: -28,38%; G% [19]: 82,62%; Mean G% - G% [20]: -25,20%; G% [20]: 79,44%"
